Data published in patent US10953032B2, “Cyclic dinucleotides as anticancer agents” (BRISTOL-MYERS SQUIBB COMPANY, priority 2017, dated 2021).
Read-outs that look alike come from different tables or passages of the source.

Key:
NFkB = experiment: STING THP1 Reporter Assay, NF-κB pathway (SEAP); assay type: cell-based; details: THP1-Dual cells, 10% human plasma, SEAP readout (OD620), 100% activation = 100 μM cGAMP, read-out: THP1 Reporter Assays EC50 (μM) NFkB
Text: (§1) THP1-Dual™ cells were derived from the human THP-1 monocyte cell line by stable integration of two inducible reporter constructs. To this end, THP1-Dual™ cells allow the simultaneous study of the NF-κB pathway, by monitoring the activity of SEAP, and the IRF pathway by assessing the activity of a secreted luciferase (Lucia). Both reporter proteins are readily measurable in the cell culture supernatant when using QUANTI-Blue™, a SEAP detection reagent, and QUANTI-Luc™, a luciferase detection reagent.
(§2) THP 1-Dual™ cells induce the activation of NF-κB in response to STING agonists. They also trigger the IRF pathway upon stimulation with STING agonists, such as cGAMP. Here, the THP-1-Dual cells were used to assess STING binders for function on the cellular level.
(§3) Serial dilutions of compounds in DMSO were added to low volume 384 well plates at 100 nl/well using an ECHO acoustic dispenser (Labcyte, model 550) to achieve final starting concentration of 100 μM in cell suspension. THP-1 Dual™ STING reporter cells (Invivogen, Dual cells cat #THPD-nfis) were added to the plates with compounds at 15,000 cells in 10 μL per well in RPMI media (Gibco, cat #11875) containing 10% human plasma in a low volume 384-well black wall clear bottom tissue culture plate (Corning, cat #3542) for SEAP assay and low volume solid white plate (Corning, cat #3826) for luciferase assay. One column of the plate was reserved for treatment with cGAMP at 100 μM for 100% activation calculation and one column for no treatment (DMSO only) for baseline activation. Plates were then incubated in 37° C. incubator at 5% CO2 for 20 hours.
(§4) In the SEAP assay, […] 2× QuantiBlue (Invivogen, cat #Rep-qb2) is added to 384 well black plates seeded with THP1 cells and incubated at 37° C. for 2 hours. Plates were read on the Envision (Perkin Elmer) at 620 nm wavelength (OD620). In the luciferase assay, 5 μl of Quantiluc (Invivogen, Rep-qlc2) is added to white 384 well plates seeded with THP1 cells and read at 5 minutes on the Envision (Perkin Elmer) using a luminescence protocol (RLU). For both cell lines, 100% activation was determined by value (RLU) of THP-1 Dual STING cells stimulated with 100 μM cGAMP (Invivogen, cat #TLRL-NACGA23-5).

[1] = molecular target: T1, STING AQ: His-TVMV-S-hSTING(155-341)-G230A-R293Q (Homo sapiens, UniProt Q86WV6, G230A/H232R/R293Q); experiment: STING HTRF Binding Assay (time resolved FRET competition), STING AQ; details: 20 nM His-tagged STING cytoplasmic domain AQ, 40 nM fluorescein-labeled cGAMP analog probe, one hour; read-out: HTRF Binding Assays EC50 (μM) STING AQ
T1 construct: STING AQ: His-TVMV-S-hSTING(155-341)-G230A-R293Q
Procedure: (§5) A time resolved FRET-based competition binding assay was used to assess test article binding to STING WT and STING AQ. His-tagged STING cytoplasmic domain (WT or AQ) at a concentration of 20 nM was incubated with 2.5 nM Tb-labeled anti-His antibody, test compound, and fluorescein-labeled cGAMP analog probe (BioLog cat. no. C195) at a concentration of 200 nM (STING WT) or 40 nM (STING AQ) in PBS containing 0.005% Tween-20 and 0.1% BSA for one hour. Fluorescence at 495 nm and 520 nm was measured using an EnVision microplate reader to quantify FRET between Tb-labeled anti-His antibody and fluorescein-labeled probe. Background was defined as the signal obtained in the absence of STING protein, and background subtracted FRET ratios were normalized to the maximum signal obtained in the absence of test compound. These values were converted to a percent inhibition. Percent inhibition was determined for test compounds at 11 concentrations. The IC50, defined as the concentration of competing test compound needed to reduce specific binding of the probe by 50%, was calculated using the 4 parameter logistic equation to fit the data

[2] = molecular target: T2, STING WT: His-TVMV-S-hSTING(155-341)-H232R (Homo sapiens, UniProt Q86WV6, H232R); experiment: STING HTRF Binding Assay (time resolved FRET competition), STING WT; details: 20 nM His-tagged STING cytoplasmic domain WT, 200 nM fluorescein-labeled cGAMP analog probe, one hour; read-out: HTRF Binding Assays EC50 (μM) STING WT
T2 construct: STING WT: His-TVMV-S-hSTING(155-341)-H232R
Procedure: as §5

IRF3 = experiment: STING THP1 Reporter Assay, IRF pathway (secreted Lucia luciferase); assay type: cell-based; details: THP1-Dual cells, 10% human plasma, luciferase readout, 100% activation = 100 μM cGAMP, read-out: THP1 Reporter Assays EC50 (μM) IRF3
Text: as §1, §2, §3, §4

T2 sequence (Q86WV6 with tags, fused parts or gaps H232R): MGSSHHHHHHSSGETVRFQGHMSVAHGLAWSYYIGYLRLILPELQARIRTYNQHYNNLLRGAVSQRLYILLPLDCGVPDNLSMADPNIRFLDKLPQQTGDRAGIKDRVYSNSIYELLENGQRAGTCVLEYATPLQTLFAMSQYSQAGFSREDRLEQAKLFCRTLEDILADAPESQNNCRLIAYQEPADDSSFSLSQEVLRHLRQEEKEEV
T1 sequence (Q86WV6 with tags, fused parts or gaps G230A/H232R/R293Q): as the sequence (Q86WV6 with tags, fused parts or gaps H232R) above, with G99A, R162Q counted along it

SMILES | EC50 (NFkB; 20 hours) [µM] | EC50 [1] [µM] | EC50 [2] [µM] | EC50 (IRF3; 20 hours) [µM] | EC50 (NFkB; Homo sapiens, THP-1, 20 h) [µM] | EC50 (IRF3; Homo sapiens, THP-1, 20 h) [µM]
Nc1ncnc2c1ncn2[C@@H]1O[C@@H]2COP(=O)(O)O[C@@H]3[C@H](O)[C@@H](COP(=O)(O)O[C@H]2[C@H]1N)O[C@H]3n1cnc2c(=O)[nH]c3nccn3c21 [Example 3, (1R,6R,8R,9R,10S,15R,17R,18R)-9-amino-8-(6-amino-9H-purin-9-yl)-3,12,18-trihydroxy-17-{4-oxo-1H,4H,5H-imidazo[2,1-b]purin-1-yl}-2,4,7,11,13,16-hexaoxa-3λ^5,12λ^5-diphosphatricyclo[13.2.1.0^6,10]octadecane-3,12-dione] | – | 0.3 | 1.6 | – | > 100 | > 100
Nc1ncnc2c1ncn2[C@@H]1O[C@@H]2COP(=O)(S)O[C@@H]3[C@H](O)[C@@H](COP(=O)(S)O[C@H]2[C@H]1F)O[C@H]3n1cnc2c(=O)[nH]c3nccn3c21 (single isomer, unassigned) [Example 1-1] | > 100 | 0.07 | 0.19 | > 100 | – | –

Now those with a lower EC50 [1], led by results:

EC50 (NFkB; 20 hours) [µM] | EC50 [1] [µM] | EC50 [2] [µM] | EC50 (IRF3; 20 hours) [µM] | EC50 (NFkB; Homo sapiens, THP-1, 20 h) [µM] | EC50 (IRF3; Homo sapiens, THP-1, 20 h) [µM] | SMILES
3 | < 0.001 | 0.003 | 1 | – | – | Nc1ncnc2c1ncn2[C@@H]1O[C@@H]2COP(=O)(S)O[C@@H]3[C@H](O)[C@@H](COP(=O)(S)O[C@H]2[C@H]1F)O[C@H]3n1cnc2c(=O)[nH]c3nccn3c21 (single isomer, unassigned) [Example 1-4]
21 | 0.004 | 0.02 | 10 | – | – | Nc1ncnc2c1ncn2[C@@H]1O[C@@H]2COP(=O)(S)O[C@@H]3[C@H](O)[C@@H](COP(=O)(S)O[C@H]2[C@H]1F)O[C@H]3n1cnc2c(=O)[nH]c3nccn3c21 (single isomer, unassigned) [Example 1-2]
– | 0.002 | 0.03 | – | 59 | 23 | Nc1ncnc2c1ncn2[C@@H]1O[C@@H]2COP(=O)(O)O[C@@H]3[C@H](O)[C@@H](COP(=O)(O)O[C@H]2[C@H]1F)O[C@H]3n1cnc2c(=O)[nH]c3nccn3c21 [Example 2, (1R,6R,8R,9R,10R,15R,17R,18R)-8-(6-amino-9H-purin-9-yl)-9-fluoro-3,12,18-trihydroxy-17-{4-oxo-1H,4H,5H-imidazo[2,1-b]purin-1-yl}-2,4,7,11,13,16-hexaoxa-3λ^5,12λ^5-diphosphatricyclo[13.2.1.0^6,10]octadecane-3,12-dione]
27 | 0.006 | 0.03 | 12 | – | – | Nc1ncnc2c1ncn2[C@@H]1O[C@@H]2COP(=O)(S)O[C@@H]3[C@H](O)[C@@H](COP(=O)(S)O[C@H]2[C@H]1F)O[C@H]3n1cnc2c(=O)[nH]c3nccn3c21 (single isomer, unassigned) [Example 1-3]
